{"source": "ChEMBL document CHEMBL4715815", "about": "“Design, synthesis and biological evaluation of 7H-pyrrolo[2,3-d]pyrimidin-4-amine derivatives as selective Btk inhibitors with improved pharmacokinetic properties for the treatment of rheumatoid arthritis” (Eur J Med Chem, 2018)", "key": {"[1]": {"assay": "Metabolic stability in mouse liver microsomes assessed as half life at 100 uM/L measured upto 90 mins by LC-MS/MS analysis", "assay_type": "ADME, Microsome"}, "[2]": {"molecular_target": "Mitogen-activated protein kinase kinase kinase 2 (Homo sapiens, UniProt Q9Y2U5)", "assay": "Inhibition of MEKK2 (unknown origin)"}, "[3]": {"molecular_target": "Dual specificity mitogen-activated protein kinase kinase 7 (Homo sapiens, UniProt O14733)", "assay": "Inhibition of MKK7beta (unknown origin)"}, "[4]": {"molecular_target": "Proto-oncogene tyrosine-protein kinase Src (Homo sapiens, UniProt P12931)", "assay": "Inhibition of recombinant human SRC using Ulight-Poly GAT[EAY(1:1:1)]n as substrate incubate for 10 mins by LANCE assay"}, "[5]": {"molecular_target": "Calcium/calmodulin-dependent protein kinase type 1 (Homo sapiens, UniProt Q14012)", "sequence (Q14012 whole entry)": "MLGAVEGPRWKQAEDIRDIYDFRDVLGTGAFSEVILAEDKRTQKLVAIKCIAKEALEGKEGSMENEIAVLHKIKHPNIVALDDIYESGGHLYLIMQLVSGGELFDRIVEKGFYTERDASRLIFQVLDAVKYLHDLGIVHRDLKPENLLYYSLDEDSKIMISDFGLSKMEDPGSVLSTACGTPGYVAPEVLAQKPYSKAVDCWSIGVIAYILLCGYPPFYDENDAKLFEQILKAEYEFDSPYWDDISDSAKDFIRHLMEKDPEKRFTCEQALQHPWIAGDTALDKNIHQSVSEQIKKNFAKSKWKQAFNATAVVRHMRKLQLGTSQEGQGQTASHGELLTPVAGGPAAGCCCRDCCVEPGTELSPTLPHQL", "assay": "Inhibition of CAMK1 (unknown origin)"}, "[6]": {"molecular_target": "Tyrosine-protein kinase JAK2 (Homo sapiens, UniProt O60674)", "assay": "Inhibition of recombinant human JAK2 using Ulight-CAGAGAIETDKEYYTVKD as substrate incubate for 60 mins by LANCE assay"}, "[7]": {"molecular_target": "T1, Tyrosine-protein kinase BTK (Homo sapiens, UniProt Q06187)", "T1 sequence (Q06187 whole entry)": "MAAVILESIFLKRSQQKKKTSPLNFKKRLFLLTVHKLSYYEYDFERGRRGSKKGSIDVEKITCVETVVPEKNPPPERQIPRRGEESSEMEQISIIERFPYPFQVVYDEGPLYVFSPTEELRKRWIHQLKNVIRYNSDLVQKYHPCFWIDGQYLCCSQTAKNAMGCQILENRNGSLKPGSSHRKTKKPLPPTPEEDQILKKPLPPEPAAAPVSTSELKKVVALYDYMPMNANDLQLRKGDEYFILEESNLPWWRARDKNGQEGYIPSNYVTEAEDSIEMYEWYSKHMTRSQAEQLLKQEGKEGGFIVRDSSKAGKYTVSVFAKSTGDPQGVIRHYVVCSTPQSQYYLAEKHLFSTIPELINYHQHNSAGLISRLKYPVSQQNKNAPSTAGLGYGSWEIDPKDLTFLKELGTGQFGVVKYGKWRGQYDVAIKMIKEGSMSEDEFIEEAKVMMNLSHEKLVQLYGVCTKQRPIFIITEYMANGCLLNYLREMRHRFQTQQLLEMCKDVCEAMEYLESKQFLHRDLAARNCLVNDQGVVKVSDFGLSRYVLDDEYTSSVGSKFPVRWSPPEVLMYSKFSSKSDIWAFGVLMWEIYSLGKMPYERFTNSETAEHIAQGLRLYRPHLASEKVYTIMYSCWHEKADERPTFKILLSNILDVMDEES", "assay": "Inhibition of BTK in human Raji cells assessed as reduction in BTK Y551 phosphorylation at 0.03 to 10 uM incubated for 1 hr by Western blot analysis", "assay_type": "cell-based", "details": "dose 0.03-10 µM"}, "[8]": {"molecular_target": "Macrophage colony-stimulating factor 1 receptor (Homo sapiens, UniProt P07333)", "assay": "Inhibition of recombinant human FMS using Ulight-TK peptide as substrate incubate for 15 mins by LANCE assay"}, "[9]": {"assay": "Toxicity in BALB/c mouse assessed as effect on kidney at 2 g/kg, po measured after 7 days of administration by histopathological analysis", "details": "in vivo, 168 h"}, "[10]": {"molecular_target": "Tyrosine-protein kinase Fyn (Homo sapiens, UniProt P06241)", "sequence (P06241 whole entry)": "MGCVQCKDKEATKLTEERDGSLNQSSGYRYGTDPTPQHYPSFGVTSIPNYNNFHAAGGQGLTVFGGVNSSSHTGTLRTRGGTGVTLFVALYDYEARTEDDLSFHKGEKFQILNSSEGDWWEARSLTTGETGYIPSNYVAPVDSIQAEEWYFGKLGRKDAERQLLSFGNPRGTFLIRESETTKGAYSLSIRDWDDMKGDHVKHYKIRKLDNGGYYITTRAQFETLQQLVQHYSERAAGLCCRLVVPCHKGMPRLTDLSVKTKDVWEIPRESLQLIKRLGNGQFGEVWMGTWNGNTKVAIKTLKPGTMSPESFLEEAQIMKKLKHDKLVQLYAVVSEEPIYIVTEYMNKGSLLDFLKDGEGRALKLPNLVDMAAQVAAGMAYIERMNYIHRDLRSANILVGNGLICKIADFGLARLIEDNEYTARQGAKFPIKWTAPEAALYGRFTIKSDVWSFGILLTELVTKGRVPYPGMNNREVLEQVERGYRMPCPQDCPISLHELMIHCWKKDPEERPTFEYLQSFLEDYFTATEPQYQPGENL", "assay": "Inhibition of recombinant human FYN using biotinyl-beta Abeta-Abeta AYQAEENTYDEYEN as substrate incubate for 60 mins by LANCE assay"}, "[11]": {"molecular_target": "Tyrosine-protein kinase Blk (Homo sapiens, UniProt P51451)", "assay": "Inhibition of BLK (unknown origin)"}, "[12]": {"molecular_target": "Calcium/calmodulin-dependent protein kinase type IV (Homo sapiens, UniProt Q16566)", "sequence (Q16566 whole entry)": "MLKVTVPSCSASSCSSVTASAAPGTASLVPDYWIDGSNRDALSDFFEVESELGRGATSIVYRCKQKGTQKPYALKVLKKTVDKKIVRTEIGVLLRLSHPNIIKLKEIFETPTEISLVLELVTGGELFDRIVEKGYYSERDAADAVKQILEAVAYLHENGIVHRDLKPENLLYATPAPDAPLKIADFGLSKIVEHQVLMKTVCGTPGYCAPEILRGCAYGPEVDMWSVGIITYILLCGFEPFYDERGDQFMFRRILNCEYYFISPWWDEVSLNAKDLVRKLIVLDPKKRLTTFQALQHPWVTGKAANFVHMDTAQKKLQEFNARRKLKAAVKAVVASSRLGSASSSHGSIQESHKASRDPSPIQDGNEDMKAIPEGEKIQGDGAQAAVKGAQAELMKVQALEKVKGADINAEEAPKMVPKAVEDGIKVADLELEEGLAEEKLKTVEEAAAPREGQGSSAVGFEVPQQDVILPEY", "assay": "Inhibition of CAMK4 (unknown origin)"}, "[13]": {"molecular_target": "BDNF/NT-3 growth factors receptor (Homo sapiens, UniProt Q16620)", "assay": "Inhibition of recombinant human TRKb using Ulight-Poly GAT[EAY(1:1:1)]n as substrate incubate for 10 mins by LANCE assay"}, "[14]": {"assay": "Oral bioavailability in Sprague-Dawley rat at 3 mg/kg measured up to 24 hrs by LC-MS/MS analysis", "assay_type": "ADME, organism-based", "details": "in vivo"}, "[15]": {"molecular_target": "T1, Tyrosine-protein kinase BTK", "assay": "Inhibition of BTK in human U2932 cells assessed as reduction in PLCgamma2 Y1217 phosphorylation at 0.03 to 10 uM incubated for 1 hr by Western blot analysis", "assay_type": "cell-based", "details": "dose 0.03-10 µM"}, "[16]": {"molecular_target": "Receptor-type tyrosine-protein kinase FLT3 (Homo sapiens, UniProt P36888)", "assay": "Inhibition of FLT3 (unknown origin)"}, "[17]": {"molecular_target": "T1, Tyrosine-protein kinase BTK", "assay": "Inhibition of BTK in human U2932 cells assessed as reduction in BTK Y551 phosphorylation at 0.03 to 10 uM incubated for 1 hr by Western blot analysis", "assay_type": "cell-based", "details": "dose 0.03-10 µM"}, "[18]": {"molecular_target": "NT-3 growth factor receptor (Homo sapiens, UniProt Q16288)", "sequence (Q16288 whole entry)": "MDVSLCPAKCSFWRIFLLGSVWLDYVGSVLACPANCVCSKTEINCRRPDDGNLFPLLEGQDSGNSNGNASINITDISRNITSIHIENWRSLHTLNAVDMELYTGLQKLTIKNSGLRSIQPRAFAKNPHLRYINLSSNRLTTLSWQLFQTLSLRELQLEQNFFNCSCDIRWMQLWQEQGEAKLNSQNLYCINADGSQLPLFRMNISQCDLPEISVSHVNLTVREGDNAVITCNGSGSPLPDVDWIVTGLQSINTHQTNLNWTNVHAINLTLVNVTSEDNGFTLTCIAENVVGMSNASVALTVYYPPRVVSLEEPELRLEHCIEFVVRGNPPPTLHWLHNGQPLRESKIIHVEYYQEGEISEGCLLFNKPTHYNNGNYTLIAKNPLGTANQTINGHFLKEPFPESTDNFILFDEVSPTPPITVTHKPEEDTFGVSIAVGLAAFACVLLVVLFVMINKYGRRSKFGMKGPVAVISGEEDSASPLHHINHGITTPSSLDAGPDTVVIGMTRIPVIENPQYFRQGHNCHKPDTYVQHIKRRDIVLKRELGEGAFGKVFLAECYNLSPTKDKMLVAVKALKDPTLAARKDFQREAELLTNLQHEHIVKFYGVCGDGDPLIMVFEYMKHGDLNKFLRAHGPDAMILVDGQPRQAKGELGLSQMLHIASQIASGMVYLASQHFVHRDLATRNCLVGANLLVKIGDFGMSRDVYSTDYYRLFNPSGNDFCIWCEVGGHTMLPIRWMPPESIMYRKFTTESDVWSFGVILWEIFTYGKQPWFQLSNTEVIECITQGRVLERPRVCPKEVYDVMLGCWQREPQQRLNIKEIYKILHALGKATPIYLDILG", "assay": "Inhibition of TRKc (unknown origin)"}, "[19]": {"assay": "Toxicity in BALB/c mouse assessed as effect on sensitive to light at 2 g/kg, po measured after 7 days of administration", "details": "in vivo, 168 h"}, "[20]": {"assay": "AUC (0 to t) in Sprague-Dawley rat at 3 mg/kg, po measured up to 24 hrs by LC-MS/MS analysis", "assay_type": "ADME, organism-based", "parameters": "route oral, dose 3 mg/kg, time <=24", "details": "in vivo"}, "[21]": {"molecular_target": "Tyrosine-protein kinase FRK (Homo sapiens, UniProt P42685)", "assay": "Inhibition of FRK (unknown origin)"}, "[22]": {"molecular_target": "Tyrosine-protein kinase CSK (Homo sapiens, UniProt P41240)", "assay": "Inhibition of CSK (unknown origin)"}, "[23]": {"assay": "Volume of distribution in Sprague-Dawley rat at 3 mg/kg, po measured up to 24 hrs by LC-MS/MS analysis", "assay_type": "ADME, organism-based", "details": "in vivo"}, "[24]": {"assay": "Tmax in Sprague-Dawley rat at 3 mg/kg, iv measured up to 24 hrs by LC-MS/MS analysis", "assay_type": "ADME, organism-based", "details": "in vivo"}, "[25]": {"molecular_target": "Epidermal growth factor receptor (Homo sapiens, UniProt P00533)"}, "[26]": {"molecular_target": "Ribosomal protein S6 kinase alpha-1 (Homo sapiens, UniProt Q15418)", "assay": "Inhibition of RSK1 (unknown origin)"}, "[27]": {"molecular_target": "Calcium/calmodulin-dependent protein kinase kinase 1 (Homo sapiens, UniProt Q8N5S9)", "assay": "Inhibition of CAMKK1 (unknown origin)"}, "[28]": {"assay": "Metabolic stability in human liver microsomes assessed as half life at 100 uM/L measured upto 90 mins by LC-MS/MS analysis", "assay_type": "ADME, Microsome", "details": "[…]"}, "[29]": {"assay": "Volume of distribution in Sprague-Dawley rat at 3 mg/kg, iv measured up to 24 hrs by LC-MS/MS analysis", "assay_type": "ADME, organism-based", "details": "in vivo"}, "[30]": {"assay": "Toxicity in BALB/c mouse assessed as effect on heart at 2 g/kg, po measured after 7 days of administration by histopathological analysis", "details": "in vivo, 168 h"}, "[31]": {"molecular_target": "Ribosomal protein S6 kinase alpha-2 (Homo sapiens, UniProt Q15349)", "sequence (Q15349 whole entry)": "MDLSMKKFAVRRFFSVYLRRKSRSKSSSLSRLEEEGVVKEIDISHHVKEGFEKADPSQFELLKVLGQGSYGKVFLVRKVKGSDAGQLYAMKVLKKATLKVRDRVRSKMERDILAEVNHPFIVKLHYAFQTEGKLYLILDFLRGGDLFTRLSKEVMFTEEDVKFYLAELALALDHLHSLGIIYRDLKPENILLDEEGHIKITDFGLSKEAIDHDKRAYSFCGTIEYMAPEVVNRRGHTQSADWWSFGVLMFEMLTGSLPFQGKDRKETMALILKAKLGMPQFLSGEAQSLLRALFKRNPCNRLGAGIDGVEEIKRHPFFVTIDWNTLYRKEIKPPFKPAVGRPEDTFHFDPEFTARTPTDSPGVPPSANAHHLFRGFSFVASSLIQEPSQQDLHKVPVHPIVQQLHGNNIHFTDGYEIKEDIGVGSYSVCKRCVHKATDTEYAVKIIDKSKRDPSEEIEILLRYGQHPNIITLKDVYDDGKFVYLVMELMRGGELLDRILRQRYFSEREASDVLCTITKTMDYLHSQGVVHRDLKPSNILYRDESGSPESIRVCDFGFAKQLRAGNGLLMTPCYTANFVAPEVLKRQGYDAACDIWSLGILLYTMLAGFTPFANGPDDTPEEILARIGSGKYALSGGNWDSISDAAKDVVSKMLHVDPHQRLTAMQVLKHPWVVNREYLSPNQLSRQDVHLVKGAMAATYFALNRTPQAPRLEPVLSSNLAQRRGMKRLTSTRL", "assay": "Inhibition of RSK3 (unknown origin)"}, "[32]": {"assay": "Toxicity in BALB/c mouse assessed as effect on lung at 2 g/kg, po measured after 7 days of administration by histopathological analysis", "details": "in vivo, 168 h"}, "[33]": {"molecular_target": "T1, Tyrosine-protein kinase BTK", "assay": "Inhibition of BTK (unknown origin) by caliper mobility shift assay"}, "[34]": {"molecular_target": "Tyrosine-protein kinase JAK3 (Homo sapiens, UniProt P52333)", "sequence (P52333 whole entry)": "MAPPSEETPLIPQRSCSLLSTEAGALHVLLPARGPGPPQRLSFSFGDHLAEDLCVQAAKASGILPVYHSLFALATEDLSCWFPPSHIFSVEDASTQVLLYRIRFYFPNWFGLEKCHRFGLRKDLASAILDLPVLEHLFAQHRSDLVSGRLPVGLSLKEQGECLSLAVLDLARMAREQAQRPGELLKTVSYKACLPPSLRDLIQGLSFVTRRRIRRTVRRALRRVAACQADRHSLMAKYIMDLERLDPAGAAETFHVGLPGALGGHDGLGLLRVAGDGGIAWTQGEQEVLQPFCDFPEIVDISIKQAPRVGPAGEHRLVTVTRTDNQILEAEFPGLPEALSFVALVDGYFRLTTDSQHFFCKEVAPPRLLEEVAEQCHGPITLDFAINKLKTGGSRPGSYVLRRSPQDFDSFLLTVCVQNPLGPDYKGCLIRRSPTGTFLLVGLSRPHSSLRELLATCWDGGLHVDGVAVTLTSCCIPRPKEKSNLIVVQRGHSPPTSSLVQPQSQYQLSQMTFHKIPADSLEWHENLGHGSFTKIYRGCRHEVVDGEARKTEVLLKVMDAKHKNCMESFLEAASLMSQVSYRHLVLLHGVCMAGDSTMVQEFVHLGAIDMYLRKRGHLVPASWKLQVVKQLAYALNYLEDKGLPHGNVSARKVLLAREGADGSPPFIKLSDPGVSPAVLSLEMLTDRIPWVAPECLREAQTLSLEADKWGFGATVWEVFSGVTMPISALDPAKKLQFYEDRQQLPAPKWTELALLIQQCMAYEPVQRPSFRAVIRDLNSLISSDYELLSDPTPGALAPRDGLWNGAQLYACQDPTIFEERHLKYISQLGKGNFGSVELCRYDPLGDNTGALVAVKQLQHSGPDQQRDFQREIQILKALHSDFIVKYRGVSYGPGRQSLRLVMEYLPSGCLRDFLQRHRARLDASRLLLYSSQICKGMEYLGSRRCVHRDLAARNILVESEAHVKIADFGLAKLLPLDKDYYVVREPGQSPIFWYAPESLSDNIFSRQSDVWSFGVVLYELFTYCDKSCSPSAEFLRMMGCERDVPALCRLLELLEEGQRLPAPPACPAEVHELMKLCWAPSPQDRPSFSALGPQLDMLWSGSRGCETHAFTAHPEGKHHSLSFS", "assay": "Inhibition of recombinant human JAK3 using Ulight-CAGAGAIETDKEYYTVKD as substrate incubate for 60 mins by LANCE assay"}, "[35]": {"assay": "Metabolic stability in monkey liver microsomes assessed as intrinsic clearance at 100 uM/L measured upto 90 mins by LC-MS/MS analysis", "assay_type": "ADME, Macaca mulatta, Microsome", "details": "rhesus monkey, 1.5 h"}, "[36]": {"molecular_target": "Ribosomal protein S6 kinase alpha-6 (Homo sapiens, UniProt Q9UK32)", "assay": "Inhibition of RSK4 (unknown origin)"}, "[37]": {"molecular_target": "T1, Tyrosine-protein kinase BTK", "assay": "Inhibition of BTK in human Daudi cells assessed as reduction in BTK Y223 phosphorylation incubated for 1 hr by Western blot analysis", "assay_type": "cell-based", "details": "dose 0.03-10 µM"}, "[38]": {"molecular_target": "Dual specificity mitogen-activated protein kinase kinase 4 (Homo sapiens, UniProt P45985)", "assay": "Inhibition of MKK4 (unknown origin)"}, "[39]": {"molecular_target": "Dual specificity mitogen-activated protein kinase kinase 2 (Homo sapiens, UniProt P36507)", "assay": "Inhibition of MEK2 (unknown origin)"}, "[40]": {"molecular_target": "T1, Tyrosine-protein kinase BTK", "assay": "Inhibition of BTK in human Raji cells assessed as reduction in PLCgamma2 Y1217 phosphorylation at 0.03 to 10 uM incubated for 1 hr by Western blot analysis", "assay_type": "cell-based", "details": "dose 0.03-10 µM"}, "[41]": {"molecular_target": "Tyrosine-protein kinase Fgr (Homo sapiens, UniProt P09769)", "assay": "Inhibition of FGR (unknown origin)"}}, "note": "The source made the active and inactive calls. The rule behind the calls is not given here."}
{"smiles": "C=CC(=O)N1CCC(Cn2cc(-c3ccc4c(c3)OCO4)c3c(N)ncnc32)CC1", "values": [{"measurement": "half-life at 100 µM", "setting": "[1]", "result": 4.28, "unit": "h"}, {"measurement": "IC50", "setting": "[2]", "result": "> 10", "unit": "µM"}, {"measurement": "IC50", "setting": "[3]", "result": "> 10", "unit": "µM"}, {"measurement": "IC50", "setting": "[4]", "result": 1, "unit": "µM"}, {"measurement": "IC50", "setting": "[5]", "result": "> 10", "unit": "µM"}, {"measurement": "IC50", "setting": "[6]", "result": "> 10", "unit": "µM"}, {"measurement": "inhibition", "setting": "[7]", "result": "inactive"}, {"measurement": "IC50", "setting": "[8]", "result": "> 10", "unit": "µM"}, {"measurement": "Activity", "setting": "[9]", "result": "Non-Toxic"}, {"measurement": "IC50", "setting": "[10]", "result": 1.01, "unit": "µM"}, {"measurement": "IC50", "setting": "[11]", "result": 0.504, "unit": "µM"}, {"measurement": "IC50", "setting": "[12]", "result": "> 10", "unit": "µM"}, {"measurement": "IC50", "setting": "[13]", "result": "> 10", "unit": "µM"}, {"measurement": "bioavailability", "setting": "[14]", "result": 49.1, "unit": "%"}, {"measurement": "inhibition", "setting": "[15]", "result": "Active"}, {"measurement": "IC50", "setting": "[16]", "result": "> 10", "unit": "µM"}, {"measurement": "inhibition", "setting": "[17]", "result": "inactive"}, {"measurement": "IC50", "setting": "[18]", "result": "> 10", "unit": "µM"}, {"measurement": "Activity", "setting": "[19]", "result": "Non-Toxic"}, {"measurement": "AUC(0-t) at 24 h", "setting": "[20]", "result": 1240, "unit": "ng·h/mL"}, {"measurement": "IC50", "setting": "[21]", "result": 1.13, "unit": "µM"}, {"measurement": "IC50", "setting": "[22]", "result": "> 10", "unit": "µM"}, {"measurement": "Vd", "setting": "[23]", "result": 26.15, "unit": "L/kg"}, {"measurement": "Tmax", "setting": "[24]", "result": 6.6, "unit": "min"}, {"measurement": "IC50", "setting": "[25]", "result": "> 10", "unit": "µM"}, {"measurement": "IC50", "setting": "[26]", "result": "> 10", "unit": "µM"}, {"measurement": "IC50", "setting": "[27]", "result": "> 10", "unit": "µM"}, {"measurement": "half-life at 100 µM", "setting": "[28]", "result": 5.5, "unit": "h"}, {"measurement": "Vd", "setting": "[29]", "result": 1.21, "unit": "L/kg"}, {"measurement": "Activity", "setting": "[30]", "result": "Non-Toxic"}, {"measurement": "IC50", "setting": "[31]", "result": "> 10", "unit": "µM"}, {"measurement": "Activity", "setting": "[32]", "result": "Non-Toxic"}, {"measurement": "IC50", "setting": "[33]", "result": 0.0217, "unit": "µM"}, {"measurement": "IC50", "setting": "[34]", "result": "> 10", "unit": "µM"}, {"measurement": "CLH", "setting": "[35]", "result": 8.2, "unit": "µL/min/mg"}, {"measurement": "IC50", "setting": "[36]", "result": "> 10", "unit": "µM"}, {"measurement": "inhibition", "setting": "[37]", "result": "Dose-dependent effect"}, {"measurement": "IC50", "setting": "[38]", "result": "> 10", "unit": "µM"}, {"measurement": "IC50", "setting": "[39]", "result": "> 10", "unit": "µM"}, {"measurement": "inhibition", "setting": "[40]", "result": "Active"}, {"measurement": "IC50", "setting": "[41]", "result": 0.657, "unit": "µM"}]}
